Measured values as given in patent US12358921B2, “Antiviral heterocyclic compounds” (priority 2022, dated 2025).

What was measured:
Assay type in all cases: cell-based
[1] = tested on: HUMAN RSV-A (“LONG” STRAIN); assay: RSV-A assay (CPE, ATPlite) in Hep-2 cells; conditions: human respiratory syncytial virus, 120 h, MOI 0.1, 5-day incubation
Method in brief: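 Protection from RSV cytopathic effect read by ATP luminescence (ATPlite) after 5-day culture. Genotype A "Long" virus added at MOI 0.1 to Hep-2 monolayers at 8,000 cells/well, pre-dosed with duplicate 2-fold compound dilutions; controls include infected untreated and uninfected wells. EC50 values binned into ranges.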

hMPV A2 TN/94-49 [2] = assay: HMPV antiviral assay Method 1 (LLC-MK2 cells, ATP-Lite); conditions: hMPV A2 TN/94-49, LLC-MK2 cells
Method in brief: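 LLC-MK2 cells infected in suspension with hMPV A2 TN/94-49 at MOI 0.005, 5,000 cells/well, in serum-free OptiMEM with 2 μg/mL TPCK-trypsin (final) and CaCl2; compounds in duplicate, 10 points, 2 μM top, 2.5-fold dilutions. After 7 days at 37 °C, cell health by ATP-Lite luminescence; EC50 by four-parameter fit.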

hMPV A2 TN/94-49 [3] = assay: HMPV antiviral assay Method 2 (LLC-MK2 cells with CP-100-356, ATP-Lite); conditions: hMPV A2 TN/94-49, LLC-MK2 cells, 4 μM CP-100-356, Method 2
Method in brief: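 The protective effect was measured after 7 days at 37 °C by ATP-Lite luminescence and expressed as % cell health relative to virus-only and cells-only wells, with EC50 from a four-parameter logistic. Cells were LLC-MK2 infected with strain A2 TN/94-49 (MOI 0.16) with final 2 μM CP-100-356 and 2 μg/mL TPCK-trypsin; 10 duplicate concentrations from 200 nM, 2.5-fold steps.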

EC50 [1] [nM]	EC50 (hMPV A2 TN/94-49 [2]) [nM]	EC50 (hMPV A2 TN/94-49 [3]) [nM]	Structure (SMILES)
< 200	< 500	< 200	COc1cc(C(=O)NC[C@@](O)(c2cccc(F)c2)c2cc3c(c(-c4cccc(Cl)c4Cl)n2)OC[C@]3(C)C(N)=O)cc2oc(C3CC3)nc12 [Example 292]
< 200	> 500	< 200	COc1cc(C(=O)NC[C@@](O)(c2ccccc2)c2cc3c(c(-c4cc(Cl)c(F)cc4F)n2)OC[C@]3(C)C(N)=O)cc2cc(C(F)F)nnc12 [Example 186]
< 200	< 500	< 200	COc1cc(C(=O)NC[C@@](O)(c2ccccc2)c2cc3c(c(-c4ccc(F)c(Cl)c4Cl)n2)OC[C@]3(C)C(N)=O)cc2oc(C)nc12 [Example 277]
< 200	< 500	< 200	COc1cc(C(=O)NC[C@@](O)(c2ccccc2)c2cc3c(c(-c4cc(F)c(F)cc4F)n2)OC[C@]3(C)C(N)=O)cc2cn(C3(F)CC3)nc12 [Example 170]
< 200	< 500	< 200	COc1cc(C(=O)NC[C@@](O)(c2ccccc2)c2cc3c(c(-c4ccc(F)c(Cl)c4Cl)n2)OC[C@]3(C)C(N)=O)cc2cc(C3CC3)nnc12 [Example 290]
< 200	< 500	< 200	COc1cc(C(=O)NC[C@@](O)(c2ccccc2)c2cc3c(c(-c4cc(Cl)c(F)cc4F)n2)OC[C@]3(C)C(N)=O)cc2sc(N)nc12 [Example 157]
< 200	< 500	< 200	[2H]C([2H])([2H])c1nc2ccc(C(=O)NC[C@@](O)(c3cccc(F)c3)c3cc4c(c(-c5ccc(F)c(Cl)c5Cl)n3)OC[C@]4(C)C(N)=O)cc2o1 [Example 281]
< 200	< 500	< 200	COc1cc(C(=O)NC[C@@](O)(c2ccccc2)c2cc3c(c(-c4ccc5c(c4)OC(F)(F)O5)n2)OC[C@]3(C)C(N)=O)cc2cn(C3CC3)nc12 [Example 18]
< 200	< 500	< 200	COc1cc(C(=O)NC[C@](O)(c2cc3c(c(-c4ccc(F)c(C)c4Cl)n2)OC[C@]3(C)C(N)=O)C2CC2)cc2cn(C3CC3)nc12 [Example 69]
< 200	< 500	< 200	COc1cc(C(=O)NC[C@@](O)(c2ccccc2)c2cc3c(c(-c4ccc(F)c(Cl)c4Cl)n2)OC[C@]3(C)C(N)=O)cc2cc(C)nnc12 [Example 289]
< 200	< 500	< 200	COc1cc(C(=O)NC[C@@](O)(c2cccc(F)c2)c2cc3c(c(-c4ccc(F)c(Cl)c4Cl)n2)OC[C@]3(C)C(N)=O)cc2cn(C(F)F)nc12 [Example 270]
< 200	< 500	< 200	Cc1nc2c(OC3CC3)cc(C(=O)NC[C@@](O)(c3ccccc3)c3cc4c(c(-c5ccc(F)c(Cl)c5Cl)n3)OC[C@]4(C)C(N)=O)cc2o1 [Example 271]
< 200	< 500	< 200	COc1cc(C(=O)NC[C@@](O)(c2ccccc2)c2cc3c(c(-c4ccc(F)c(F)c4Cl)n2)OC[C@]3(C)C(N)=O)cc2cn(C(F)F)nc12 [Example 213]
< 200	< 500	< 200	C[C@]1(C(N)=O)COc2c1cc([C@@](O)(CNC(=O)c1cc(OC3CC3)c3nn(C4CC4)cc3c1)C1CC1)nc2-c1ccc(F)c(Cl)c1Cl [Example 23]
< 200	< 500	< 200	COc1cc(C(=O)NC[C@@](O)(c2cccc(F)c2)c2cc3c(c(-c4ccc(F)c(Cl)c4Cl)n2)OC[C@]3(C)C(N)=O)cc2cn(C3CC3)nc12 [Example 268]
< 200	< 500	< 200	COc1cc(C(=O)NC[C@@](O)(c2ccccc2)c2cc3c(c(-c4cccc(Cl)c4Cl)n2)OC[C@]3(C)C(N)=O)cc2cn(C3CC3)nc12 [Example 260]
< 200	< 500	< 200	C[C@]1(C(N)=O)COc2c1cc([C@@](O)(CNC(=O)c1ccc3nc(C4CC4)oc3c1)c1cccc(F)c1)nc2-c1ccc2c(c1Cl)OC(F)(F)O2 [Example 287]
< 200	< 500	< 200	COc1cc(C(=O)NC[C@@](O)(c2ccccc2)c2cc3c(c(-c4cc(Cl)c(F)cc4F)n2)OC[C@]3(C)C(N)=O)cc2cc(Cl)cnc12 [Example 187]
< 200	< 500	< 200	COc1cc(C(=O)NC[C@@](O)(c2ccc(F)cc2)c2cc3c(c(-c4cc(Cl)c(F)cc4F)n2)OC[C@]3(C)C(N)=O)cc2cn(C3(F)CC3)nc12 [Example 14]

EC50 [1] [nM]	EC50 (hMPV A2 TN/94-49 [2]) [nM]	EC50 (hMPV A2 TN/94-49 [3]) [nM]	Structure (SMILES)
< 200	< 500	< 200	COc1cc(C(=O)NC[C@](O)(c2cc3c(c(-c4ccc(F)c(F)c4C)n2)OC[C@]3(C)C(N)=O)C2CC2)cc2cn(C3CC3)nc12 [Example 70]
< 200	< 500	< 200	COc1cc(C(=O)NC[C@@](O)(c2cccnc2)c2cc3c(c(-c4cc(Cl)c(F)cc4F)n2)OC[C@]3(C)C(N)=O)cc2cn(C3CC3)nc12 [Example 131]
< 200	< 500	< 200	COc1cc(C(=O)NC[C@@](O)(c2ccsc2)c2cc3c(c(-c4cc(F)c(F)cc4F)n2)OC[C@]3(C)C(N)=O)cc2cn(C3(F)CC3)nc12 [Example 179]
< 200	< 500	< 200	C[C@]1(C(N)=O)COc2c1cc([C@@](O)(CNC(=O)c1cc(OC3CC3)c3nn(C4(F)CC4)cc3c1)C1CC1)nc2-c1cc(Cl)c(F)cc1F [Example 5]
< 200	< 500	< 200	COc1cc(C(=O)NC[C@](O)(c2cc3c(c(-c4cc(Cl)c(F)cc4F)n2)OC[C@]3(C)C(N)=O)c2cccs2)cc2cn(C3CC3)nc12 [Example 474]
< 200	> 500	> 200	CCc1cc(-c2nc([C@@](O)(CNC(=O)c3cc(OC)c4nn(C5CC5)cc4c3)C3CC3)cc3c2OC[C@]3(C)C(N)=O)ccc1F [Example 71]
< 200	< 500	< 200	COc1cc(C(=O)NC[C@@](O)(c2ccccc2)c2cc3c(c(-c4cc(Cl)c(F)cc4F)n2)OC[C@]3(C)C(N)=O)cc2cc(Br)cnc12 [Example 185]
< 200	< 500	< 200	COc1cc(C(=O)NC[C@@](O)(c2ccc(F)cc2)c2cc3c(c(-c4cc(Cl)c(F)cc4F)n2)OC[C@]3(C)C(N)=O)cc2cn(C3CC3)nc12 [Example 12]
< 200	< 500	< 200	COc1cc(C(=O)NC[C@@](O)(c2ccc(F)cc2)c2cc3c(c(-c4ccc5c(c4Cl)OC(F)(F)O5)n2)OC[C@]3(C)C(N)=O)cc2cn(C(F)F)nc12 [Example 264]
< 200	< 500	< 200	COc1cc(C(=O)NC[C@@](O)(c2ccccc2)c2cc3c(c(-c4cc(Cl)c(F)cc4F)n2)OC[C@]3(C)C(N)=O)cc2cc(C3CC3)nnc12 [Example 90]
< 200	< 500	< 200	COc1cc(C(=O)NC[C@@](O)(c2cccc(F)c2)c2cc3c(c(-c4ccc(F)c(Cl)c4Cl)n2)OC[C@]3(C)C(N)=O)cc2oc(C3CC3)nc12 [Example 280]
< 200	< 500	< 200	COc1cc(C(=O)NC[C@@](O)(c2ccccc2)c2cc3c(c(-c4ccc5c(c4)OC(F)(F)O5)n2)OC[C@]3(C)C(N)=O)cc2cn(C3(F)CC3)nc12 [Example 19]
< 200	< 500	< 200	C[C@]1(C(N)=O)COc2c1cc([C@@](O)(CNC(=O)c1cc(OC3CC3)c3nn(C(F)F)cc3c1)C1CC(F)(F)C1)nc2-c1cc(F)c(F)cc1F [Example 34]
< 200	< 500	< 200	COc1cc(C(=O)NC[C@@](O)(c2ccccc2)c2cc3c(c(-c4cc(Cl)ccc4F)n2)OC[C@]3(C)C(N)=O)cc2cn(C3CC3)nc12 [Example 144]
< 200	< 500	< 200	COc1ccc([C@](O)(CNC(=O)c2cc(OC)c3nn(C4CC4)cc3c2)c2cc3c(c(-c4cc(Cl)c(F)cc4F)n2)OC[C@]3(C)C(N)=O)cc1 [Example 165]
< 200	< 500	< 200	COc1cc(C(=O)NC[C@@](O)(c2ccc(F)cc2)c2cc3c(c(-c4ccc(F)c(Cl)c4Cl)n2)OC[C@]3(C)C(N)=O)cc2cn(C3CC3)nc12 [Example 41]
< 200	< 500	< 200	COc1cc(C(=O)NC[C@@](O)(c2ccccc2)c2cc3c(c(-c4ccc(F)c(Cl)c4Cl)n2)OC[C@]3(C)C(N)=O)cc2cn(C3(F)CC3)nc12 [Example 259]
< 200	< 500	< 200	[2H]C([2H])([2H])c1nc2ccc(C(=O)NC[C@@](O)(c3cccc(F)c3)c3cc4c(c(-c5ccc6c(c5Cl)OC(F)(F)O6)n3)OC[C@]4(C)C(N)=O)cc2o1 [Example 282]
< 200	< 500	< 200	COc1cc(C(=O)NC[C@@](O)(c2ccccc2)c2cc3c(c(-c4cc(C(F)F)c(F)cc4F)n2)OC[C@]3(C)C(N)=O)cc2cn(C3(F)CC3)nc12 [Example 298]
